{"source": "paper PMC7407491", "about": "“The Addition of a Synthetic LPS-Targeting Domain Improves Serum Stability While Maintaining Antimicrobial, Antibiofilm, and Cell Stimulating Properties of an Antimicrobial Peptide” (Biomolecules, 2020)", "key": {"MRSA biofilm": {"tested_on": "MRSA biofilm", "assay": "Biofilm inhibition assay, crystal violet", "format": "cell-based, Methicillin-resistant Staphylococcus aureus", "description": "Plates were placed in a static incubator at 37 °C for 48 h; the time required for untreated wells to form biofilm. After incubation, treated media was removed and wells were rinsed with 155 µL of PBS to remove planktonic cells. After sufficient air drying of wells, 150 µL of 0.1% Crystal violet stain was added to each well and incubated at room temperature for 30 min, after which, dye was removed and wells were rinsed again with 155 µL of PBS. After sufficient drying of wells, 150 µL of 70% ethanol solution was added to each well and incubated at room temperature for 30 min. After 30 min, 100 µL of each well was added to a new 96-well plate and absorbance was measured at an OD of 590 nm."}, "[1]": {"tested_on": "pre-formed S. typhimurium biofilm", "assay": "Pre-formed biofilm destruction assay, crystal violet", "format": "cell-based, Salmonella typhimurium", "conditions": "64 µg/mL, 3 h treatment, crystal violet", "description": "To test the destruction of preformed biofilms, in a 96-well plate, 15 µL of overnight culture, of either E. coli, S. typhimurium, or MRSA, was added to 150 µL of minimal salt media (40 mM […]; 22 mM KH2PO4; […] NH4CL; 740 mM NaCl; 2 mM MgSO4; 0.1 mM CaCl2; 22 mM supplemented with D-Glucose) in each well. Plates were placed in a static incubator at 37 °C for 48 h; the time required for untreated wells to form biofilm. After formation, minimal salt media was removed and wells were treated with 155 µL of minimal salt media containing PG-1 or SynPG-1. […] Plates were placed in a static incubator at 37 °C for 3 h. After 3 h, treated media was removed and wells were rinsed with 155 µL of PBS to remove planktonic cells. After sufficient drying of wells, 150 µL of 0.1% crystal violet stain was added to each well and incubated at room temperature for 30 min, after which dye was removed and wells were rinsed again with 155 µL of PBS. After sufficient drying of wells, 150 µL of 70% ethanol solution was added to each well and incubated at room temperature for 30 min. After 30 min, 100 µL of each well was added to a new 96-well plate and absorbance was measured at an OD of 590 nm."}, "IPEC-J2 cells": {"tested_on": "IPEC-J2 cells", "assay": "In vitro cell migration, transwell assay", "format": "cell-based, porcine", "conditions": "transwell 8-micron, serum-free DMEM F-12, 5 to 20 µg/mL, 16 h, Hoechst 33342 count; SynPG-1 not significant at higher concentrations", "description": "A cell line, established from intestinal porcine enterocytes, isolated from the jejunum of a neonatal unsuckled piglet (IPEC-J2 cells, DSMZ), was grown in monolayer culture in Dulbecco’s modified Eagle’s medium (high glucose), supplemented with 10% fetal bovine serum (FBS) from Invitrogen, 100 IU/mL penicillin, and 100 µg/mL streptomycin. Cultures were maintained in a 5% CO2 humidified atmosphere at 37 °C and passaged every 2–3 days, with detachment via the Trypsin-EDTA solution (Sigma).\nTo evaluate migration of IPEC-J2 cells, 8-micron pore-sized cell culture transwell inserts were used (Millipore Inc, Temecula, CA, USA). A total of 1 × 10^5 cells were plated in the upper inserts of the transwell and placed within 24-well plates, containing serum-free DMEM F-12 in the absence and presence of SynPG-1 or PG-1, at concentrations ranging from 5 µg/mL to 20 µg/mL. After incubation for 16 h, the cells were fixed with 4% (w/v) paraformaldehyde. […] Migration was quantified by cell enumeration through Hoechst 33342 staining of cell nuclei (Thermo Fisher Scientific, Mississauga, ON, Canada). The results are represented as the relative fold increase in migrated cells when compared to the baseline migration of IPEC-J2 cells in serum-free media after 16 h."}, "A. baumanni biofilm": {"tested_on": "A. baumanni biofilm", "conditions": "tested alone or with an antibiotic; reduction in crystal violet staining only; cited from earlier work", "source_text": "Although many have studied the antimicrobial potential of PG-1, its anti-biofilm properties have only been tested against a few species, including Streptococcus mutans and Acinetobacter baumanni. Since the composition of the extracellular polymeric substance (EPS) of a biofilm can vary widely from species to species, further investigation into the PG-1′s spectrum of antibiofilm activity is necessary. To do so, we evaluated the effect of PG-1 and SynPG-1 on the disruption and formation of biofilms from three pathogenic MDR bacteria and measured the remaining viable pathogens. ..."}, "MRSP": {"tested_on": "MRSP", "format": "cell-based, Methicillin-resistant Staphylococcus pseudointermedius", "conditions": "2 h, pH 7", "description": "(§1) Veterinary clinical isolates, including Salmonella typhimurium, multi-drug resistant Escherichia coli, methicillin-resistant Staphylococcus aureus (MRSA), and methicillin-resistant Staphylococcus pseudointermedius (MRSP), were kindly provided by Dr. H. Cai (Department of Pathobiology, University of Guelph, ON, Canada). An antibiogram for these strains is available in the supplementary text (Table S1). Gram-negative strains were cultured in Luria−Bertani (LB) broth. Gram-positive strains were cultured in Tryptic soy broth (TSB). Both cultures were grown under aerobic conditions at 37 °C.\n(§2) The minimum bactericidal concentration (MBC) of SynPG-1 against the tested pathogens was identified through a broth macrodilution antimicrobial assay as previously described, with some modification. […] The buffer volume was adjusted to accommodate the addition of SynPG-1 and PG-1 so that the final solution volume was 0.5 mL for each tested concentration. Final peptide concentrations ranged from 0.1 µg/mL to 8 µg/mL. PG-1 at the known MBC (2 µg/mL E. coli; 4 µg/mL S. typhimurium; 0.5 µg/mL MRSP; 0.5 µg/mL MRSA) was considered the in-house positive control, while the suspension containing no peptide was considered the negative control. Experimental and control tubes were incubated for 2 h at 37 °C without shaking to allow for bactericidal action to occur. […] Colony numbers from each plate were recorded. […]"}, "[2]": {"conditions": "25% porcine intestinal fluid (pH 6.5) in PBS, 1 mg/mL peptide, 1 h 37 °C with shaking; residual activity vs E. coli at 20 µg/mL, colony count; three independent experiments", "protocol": "Porcine digestive fluids were collected, as previously described by Wang et al. [44]. […] The gastrointestinal tract was kept at 4 °C during dissection, and collection of contents from the stomach and upper small intestine (duodenum and jejunum) was conducted within 5 h of sacrifice. Contents were centrifuged at 10,000 rpm (9600× g) for 10 min at 4 °C, and supernatant fluid was collected and stored at −80 °C until its use in the stability experiment. The pH of the collected supernatants were 3.5 and 6.5 for gastric fluid and duodenum fluid, respectively.\nProcedures similar to those used by Egger et al. [45] were used for this experiment. […] Suspension containing no peptide was considered the negative control. After incubation, 10 µL of the incubated solutions was added for a total volume of 0.5 mL, consisting of 20 µL of mid-logarithmic phase E. coli cells, diluted to a concentration of about 1 × 10^5 CFU/mL, and 470 µL of 20 mM sodium phosphate buffer (pH 7). […] Stability in porcine digestive fluid was evaluated as the relative colony growth on plates from bacterial grown with digestive fluid and peptide treatments, in comparison to plates grown from bacteria grown with digestive fluid alone.\nStability was evaluated by comparing the mean growth of colonies on plates treated with peptides incubated in digestive fluids to colonies grown when treated without peptide. […]"}, "MRSA": {"tested_on": "MRSA", "format": "cell-based, Methicillin-resistant Staphylococcus aureus", "conditions": "2 h, pH 7", "description": "as §1, §2"}}, "data": [{"smiles": "CC(C)C[C@H](NC(=O)[C@H](CCCNC(=N)N)NC(=O)CNC(=O)CNC(=O)[C@@H](N)CCCNC(=N)N)C(=O)N[C@H]1CSSC[C@@H](C(=O)N[C@H](C(=O)NCC(=O)N[C@@H](CCCNC(=N)N)C(N)=O)C(C)C)NC(=O)[C@H](C(C)C)NC(=O)[C@@H]2CSSC[C@H](NC(=O)[C@H](Cc3ccc(O)cc3)NC1=O)C(=O)N[C@@H](CCCNC(=N)N)C(=O)N[C@@H](CCCNC(=N)N)C(=O)N[C@@H](CCCNC(=N)N)C(=O)N[C@@H](Cc1ccccc1)C(=O)N2", "note": "[PG-1, Protegrin-1]", "values": [{"measurement": "Concentration at which inhibition of biofilm formation was seen", "setting": "MRSA biofilm; minimal salt media, 48 h 37 °C static, crystal violet OD 590 nm, p < 0.05 vs control, concentration dependent", "value": 8, "unit": "µg/mL"}, {"measurement": "Effect on biofilm formation at the concentration where SynPG-1 began to reduce it", "setting": "MRSA biofilm; same concentration as SynPG-1 onset (2 µg/mL), crystal violet, 48 h", "value": "significant promotion of biofilm formation"}, {"measurement": "Effect on pre-formed biofilm at 64 µg/mL", "setting": "[1]", "value": "did not demonstrate a significant reduction"}, {"measurement": "Concentration at which cell migration increased significantly", "setting": "IPEC-J2 cells", "value": 20, "unit": "µg/mL"}, {"measurement": "Antibiofilm activity", "setting": "A. baumanni biofilm", "value": "no antibiofilm activity"}, {"measurement": "MBC", "setting": "MRSP", "value": "0.5 (0.18) μg/mL"}, {"measurement": "Antimicrobial activity after incubation in 25% porcine intestinal fluid", "setting": "[2]", "value": "mean % growth of control increased for SynPG-1 but not PG-1"}, {"measurement": "MBC", "setting": "MRSA", "value": "0.5 (0.18) μg/mL"}]}]}
